From BigSolDB 2.1

O=C1CCCC(=O)C1
solubility (mole fraction)
Conditions | 288.15 K | 293.15 K | 298.15 K | 303.15 K | 308.15 K | 313.15 K | 318.15 K | 323.15 K | 328.15 K
in 2-butanone | 0.0273 | 0.0355 | 0.0534 | 0.0727 | 0.0991 | 0.133 | 0.162 | 0.215 | 0.264
in THF | 0.0855 | 0.109 | 0.135 | 0.164 | 0.208 | 0.246 | 0.307 | 0.347 | 0.392
in acetone | 0.0488 | 0.0624 | 0.0834 | 0.108 | 0.132 | 0.173 | 0.211 | 0.245 | 0.282
in acetonitrile | 0.0156 | 0.0198 | 0.0258 | 0.035 | 0.044 | 0.0538 | 0.0685 | 0.09 | 0.113
in chloroform | 0.238 | 0.256 | 0.29 | 0.317 | 0.364 | 0.4 | 0.432 | 0.47 | 0.505
in ethyl acetate | 0.0126 | 0.0155 | 0.0194 | 0.0244 | 0.0307 | 0.039 | 0.0515 | 0.0626 | 0.0819
in ethyl butyrate | 0.0083 | 0.0103 | 0.0125 | 0.0148 | 0.0184 | 0.0221 | 0.0266 | 0.0322 | 0.0379
in ethyl formate | 0.0109 | 0.0141 | 0.0182 | 0.0231 | 0.0287 | 0.0359 | 0.0492 | 0.0591 | 0.0694
in ethyl propionate | 0.0118 | 0.0139 | 0.017 | 0.0203 | 0.0246 | 0.0294 | 0.0353 | 0.041 | 0.0495
in isopropyl acetate | 0.0125 | 0.0146 | 0.017 | 0.0194 | 0.0228 | 0.0269 | 0.0302 | 0.0368 | 0.0424
in methyl acetate | 0.0146 | 0.02 | 0.0247 | 0.0313 | 0.0406 | 0.0524 | 0.0714 | 0.0886 | 0.105
in n-butyl acetate | 0.0119 | 0.0141 | 0.0168 | 0.0202 | 0.0237 | 0.0282 | 0.0347 | 0.0403 | 0.0457
in n-propyl acetate | 0.0121 | 0.0147 | 0.0176 | 0.0214 | 0.0263 | 0.0324 | 0.0381 | 0.0457 | 0.0535
in toluene | 0.00171 | 0.00244 | 0.00335 | 0.00445 | 0.00577 | 0.00803 | 0.0106 | 0.0136 | 0.0165
